We go through 7 molecules from PMC9214538, “The M1 muscarinic receptor is present in situ as a ligand-regulated mixture of monomers and oligomeric complexes” (Proceedings of the National Academy of Sciences of the …, 2022).

Read-outs that look alike come from different tables or passages of the source. Numbered stars: 1 amine (or outer) side, 2 acyl side, 3 side chain; on linkers, the order of the positions; unused ones are H or OH. Bridge positions count the residues as written; N and C are the ends. Square brackets hold non-standard residues; d marks the D form. Peptide text beside a SMILES is read from it. * marks the point of attachment. Leu(3R-OH,Nα-propionyl) = CCC(=O)N[C@H](C(=O)*)[C@H](O)C(C)C; X1 = CC(C)[C@@H](O[*:3])[C@H](N[*:1])C(=O)[*:2]; NMeT = CN[C@H](C(=O)O)[C@@H](C)O; dPhLac = O=C(O)[C@H](O)Cc1ccccc1; NMeA = CN[C@@H](C)C(=O)O; NMeDha = C=C(NC)C(=O)O

The subject of test [1] is hippocampal and cortical neurons. Briefly: Ca^2+ imaging (Fura-8 AM) in primary neuronal cultures. The test is classed as cell-based, mice. The following applies: for elevation of [Ca^2+] / percentage of tested cells that responded to carbachol: 300 μM carbachol. On the procedure:
Primary neuronal cells were plated onto precoated cover slides at a density of 5 × 10^5 and maintained at 37 °C in a 5% CO2 humidified atmosphere. On DIV7, cells were loaded with the calcium-sensitive dye Fura-8 AM; 3 µM Fura-8 was added to normal growth medium and the cells incubated at 37 °C for 30 min. Cells were then washed and incubated with HBSS with or without 1 µM FR900359 for 30 min. Coverslips were then placed into a microscope chamber containing HBSS and assays were performed as described previously ([46]).

For test [2], the system named is chemokine CXCR4. The following applies: ref [10], [41]; cited from earlier work.
Test [3] concerns muscarinic receptor. The test is described as follows: [^3H]NMS binding on intact primary neuronal cells. The following applies: read-out: dissociation constant (Kd) of the radioligand. Further details: species or system mice. The procedure:
Primary neuronal cells were seeded at a density of 5 × 10^4 cells/well onto a 96-well plate and maintained at 37 °C in a 5% CO2 humidified atmosphere. On the sixth day in vitro, cells were washed twice with binding buffer (110 mM NaCl, 5.4 mM KCl, 1.8 mM CaCl2, 1 mM MgSO4, 25 mM glucose, 20 mM 4-(2-hydroxyethyl)-1-piperazineethanesulfonic acid [HEPES], 58 mM sucrose). A range of [^3H]NMS concentrations (between 0 and 10 nM) were added to appropriate wells containing buffer or 10-µM atropine to determine total and nonspecific binding in 100 µL of final-volume binding buffer. Plates were incubated for 2 h at 37 °C and the reactions were terminated by removal of the binding mixture followed by 3 × 200 µL/well ice-cold NaCl 0.9% washes. We added 100 µL/well of Microscint-20, and the plates were sealed before overnight incubation at room temperature on a rapidly shaking platform. Bound ligand was determined using a Packard Topcount NXT (Perkin-Elmer Life Sciences).

The target of test [4] is muscarinic receptor (total muscarinic-receptor subtypes). Briefly: [^3H]NMS saturation binding on membrane preparations of cortex and hippocampus. On the set-up: species or system mice. The following applies: mean ± SD, five animals. From the text: We performed [^3H]NMS-binding studies on membrane preparations as described previously ([20]).
The test system of test [5] is D3 dopamine receptor. On the set-up: method as in PMID 28522847. The following applies: ref [40]; cited from earlier work.

Consider `C=C1C(=O)N[C@@H](C)C(=O)N(C)[C@@H](C)C(=O)N[C@@H]([C@H](OC(=O)[C@@H](NC(=O)CC)[C@H](O)C(C)C)C(C)C)C(=O)N(C)[C@@H]([C@@H](C)OC)C(=O)O[C@H](C(C)C)[C@H](NC(C)=O)C(=O)O[C@H](Cc2ccccc2)C(=O)N1C` [FR900359] (Ac-[X1][dPhLac][NMeDha]A[NMeA][X1](Leu(3R-OH,Nα-propionyl))[NMeT](Me); ester 1-C), for which, in test [1] (pretreatment with 1 µM FR900359 for 30 min, P < 0.001), the “effect on carbachol-induced elevation of [Ca^2+]” value was “prevented”.

`CC1(C)CN2C(CSC(=NC3CCCCC3)NC3CCCCC3)=CSC2=N1` [IT1t]: the “effect on dimers of CXCR4” value in test [2] is “disrupt dimers of the chemokine CXCR4”.

A word on the Kd: it is the equilibrium constant for the complex coming apart. For `C[N+]1(C)[C@@H]2CC(OC(=O)[C@H](CO)c3ccccc3)C[C@H]1[C@@H]1O[C@@H]12` (some centres unmarked) [[^3H]NMS, [^3H]N-methylscopolamine], the dissociation constant (Kd) in test [3] (intact neuronal cultures from WT mice) was […]; in test [3] (intact neuronal cultures from homozygous M1-mEGFP mice) it was […]; in test [4] (cortex, M1-KO mice) it was […]; in test [4] (cortex, M1-WT mice), […]; in test [4] (cortex, homozygous M1-mEGFP mice), […]; in test [4] (hippocampus, M1-KO mice), […]. Besides, the dissociation constant Kd in test [4] (hippocampus, M1-WT mice) came to […]; in test [4] (hippocampus, homozygous M1-mEGFP mice) it was […].

In the case of `Nc1ncnc2c1ncn2[C@@H]1O[C@H](COP(=O)(O)OP(=O)(O)OP(=O)(O)O)[C@@H](O)[C@H]1O` [adenosine triphosphate], in test [1] (10 μM ATP added after carbachol, cells from M1-KO mice), the “elevation of intracellular [Ca^2+]” value is “able to elicit rapid elevation of intracellular [Ca^2+]”.

Turning to `C[N+](C)(C)CCOC(N)=O` [carbachol], the “elevation of [Ca^2+]” value in test [1] (cells from M1-KO mice) is “did not promote a large increase of [Ca^2+]”; in test [1] (neuronal cultures from WT and homozygous M1-mEGFP mice), “promoted elevation of [Ca^2+]”. For the same molecule, the “percentage of tested cells that responded to carbachol” value was 36.7% ± 4.0% in test [1] (neurons from M1-mEGFP mice, mean ± SD) and 26.8% ± 3.4% in test [1] (neurons from WT mice).

Take `O=C(CCCN1CCC(O)(c2ccc(Cl)cc2)CC1)c1ccc(F)cc1` [haloperidol]: the “effect on dimers of the D3 dopamine receptor” value in test [5] is on record as “destabilize dimers of the D3 dopamine receptor”.

Regarding `O=C(CCCN1CCC2(CC1)C(=O)NCN2c1ccccc1)c1ccc(F)cc1` [spiperone], in test [5], the “effect on dimers of the D3 dopamine receptor” value is listed as “destabilize dimers of the D3 dopamine receptor”.
